Data published in the kinase profiling compilation of Christmann-Franck et al. (2016).

How the values were obtained:
Experiment in all cases: radiometric filter-binding kinase assay, Kinase HotSpot
Details in all cases: compound 0.5 µM; ATP 10 µM
FLT1 (human) = FLT1 (human) (UniProt P17948)
PDGFRB (human) = PDGFRB (human) (UniProt P09619)
CSNK1D (human) = CSNK1D (human) (UniProt P48730)
DYRK1A (human) = DYRK1A (human) (UniProt Q13627)
RPS6KA2 KD1 KD2 (human) = RPS6KA2 KD1 KD2 (human) (UniProt Q15349)
MAP3K2 (human) = MAP3K2 (human) (UniProt Q9Y2U5)
PRKCD (human) = PRKCD (human) (UniProt Q05655)
TGFBR1 (human) = TGFBR1 (human) (UniProt P36897)
CDK5 CDK5R1 p25 (human) = CDK5 CDK5R1 p25 (human) (UniProt Q00535+Q15078)
CAMKK1 (human) = CAMKK1 (human) (UniProt Q8N5S9)
[1] = molecular target: JAK1 JH1 catalytic (human) (UniProt P23458)
MYLK2 (human) = MYLK2 (human) (UniProt Q9H1R3)
CSNK1A1 (human) = CSNK1A1 (human) (UniProt P48729)
FES (human) = FES (human) (UniProt P07332)
AURKB (human) = AURKB (human) (UniProt Q96GD4)
STK4 (human) = STK4 (human) (UniProt Q13043)
PIM2 (human) = PIM2 (human) (UniProt Q9P1W9)
BLK (human) = BLK (human) (UniProt P51451)
CDC42BPB (human) = CDC42BPB (human) (UniProt Q9Y5S2)
MAP3K11 (human) = MAP3K11 (human) (UniProt Q16584)
AKT3 (human) = AKT3 (human) (UniProt Q9Y243)
CSNK1E (human) = CSNK1E (human) (UniProt P49674)
OXSR1 (human) = OXSR1 (human) (UniProt O95747)
AURKA (human) = AURKA (human) (UniProt O14965)
INSRR (human) = INSRR (human) (UniProt P14616)
EPHB2 (human) = EPHB2 (human) (UniProt P29323)
DAPK1 (human) = DAPK1 (human) (UniProt P53355)
HIPK2 (human) = HIPK2 (human) (UniProt Q9H2X6)
DMPK (human) = DMPK (human) (UniProt Q09013)
MAPK11 (human) = MAPK11 (human) (UniProt Q15759)
JAK2 JH1 JH2 (human) = JAK2 JH1 JH2 (human) (UniProt O60674)
GSK3A (human) = GSK3A (human) (UniProt P49840)
FGR (human) = FGR (human) (UniProt P09769)
PRKG2 (human) = PRKG2 (human) (UniProt Q13237)
SRC (human) = SRC (human) (UniProt P12931)
YES1 (human) = YES1 (human) (UniProt P07947)
SGK3 (human) = SGK3 (human) (UniProt Q96BR1)
RAF1 (human) = RAF1 (human) (UniProt P04049)
PTK2 (human) = PTK2 (human) (UniProt Q05397)
MAP2K2 (human) = MAP2K2 (human) (UniProt P36507)
MET (human) = MET (human) (UniProt P08581)
MLTK (human) = MLTK (human) (UniProt Q9NYL2)
Chain of MLTK (human) (Q9NYL2 whole entry, looked up): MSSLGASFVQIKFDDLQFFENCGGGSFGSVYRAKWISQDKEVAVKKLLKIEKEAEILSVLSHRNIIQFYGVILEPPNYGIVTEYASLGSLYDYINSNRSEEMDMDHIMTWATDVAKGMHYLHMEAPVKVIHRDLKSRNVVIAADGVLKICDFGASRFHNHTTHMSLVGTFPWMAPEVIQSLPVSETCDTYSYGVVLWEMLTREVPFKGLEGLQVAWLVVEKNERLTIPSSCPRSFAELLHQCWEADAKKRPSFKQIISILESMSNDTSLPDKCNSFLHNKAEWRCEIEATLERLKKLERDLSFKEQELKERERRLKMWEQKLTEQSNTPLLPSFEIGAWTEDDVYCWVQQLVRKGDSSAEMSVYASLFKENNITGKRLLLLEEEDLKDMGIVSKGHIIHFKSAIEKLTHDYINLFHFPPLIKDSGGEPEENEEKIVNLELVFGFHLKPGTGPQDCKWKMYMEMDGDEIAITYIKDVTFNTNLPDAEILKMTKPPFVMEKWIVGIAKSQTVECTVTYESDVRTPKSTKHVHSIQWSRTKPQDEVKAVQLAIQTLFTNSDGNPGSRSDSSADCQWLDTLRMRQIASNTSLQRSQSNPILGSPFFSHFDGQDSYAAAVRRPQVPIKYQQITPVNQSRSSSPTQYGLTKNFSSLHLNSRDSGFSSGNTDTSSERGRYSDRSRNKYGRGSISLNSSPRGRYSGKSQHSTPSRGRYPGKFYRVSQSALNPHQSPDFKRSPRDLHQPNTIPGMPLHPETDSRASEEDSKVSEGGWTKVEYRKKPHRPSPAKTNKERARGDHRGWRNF

Chain of MAPK11 (human) (Q15759 whole entry, looked up): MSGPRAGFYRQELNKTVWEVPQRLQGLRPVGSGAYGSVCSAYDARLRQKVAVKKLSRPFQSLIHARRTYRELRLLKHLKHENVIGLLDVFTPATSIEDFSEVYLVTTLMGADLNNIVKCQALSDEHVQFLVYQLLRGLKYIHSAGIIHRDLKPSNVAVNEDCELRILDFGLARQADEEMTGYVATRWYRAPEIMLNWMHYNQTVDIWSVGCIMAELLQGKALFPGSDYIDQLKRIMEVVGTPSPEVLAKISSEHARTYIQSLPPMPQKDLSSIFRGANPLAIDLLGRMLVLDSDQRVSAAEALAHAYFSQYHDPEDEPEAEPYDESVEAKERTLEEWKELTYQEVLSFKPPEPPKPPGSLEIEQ
Chain of CAMKK1 (human) (Q8N5S9 whole entry, looked up): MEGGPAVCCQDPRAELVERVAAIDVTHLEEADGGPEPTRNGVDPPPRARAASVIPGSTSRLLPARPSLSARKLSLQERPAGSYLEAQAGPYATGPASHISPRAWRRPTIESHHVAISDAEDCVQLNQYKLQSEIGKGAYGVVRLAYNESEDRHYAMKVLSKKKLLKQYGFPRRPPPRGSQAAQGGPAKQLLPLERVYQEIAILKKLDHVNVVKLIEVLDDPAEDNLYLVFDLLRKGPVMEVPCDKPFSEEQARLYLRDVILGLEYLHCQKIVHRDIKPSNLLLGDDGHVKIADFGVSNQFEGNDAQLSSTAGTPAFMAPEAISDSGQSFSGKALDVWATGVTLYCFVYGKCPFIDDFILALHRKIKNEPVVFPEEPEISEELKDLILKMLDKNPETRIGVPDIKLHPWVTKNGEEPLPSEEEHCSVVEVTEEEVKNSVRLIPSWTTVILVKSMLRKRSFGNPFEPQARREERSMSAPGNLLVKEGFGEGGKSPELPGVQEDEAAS
Chain of TGFBR1 (human) (P36897 whole entry, looked up): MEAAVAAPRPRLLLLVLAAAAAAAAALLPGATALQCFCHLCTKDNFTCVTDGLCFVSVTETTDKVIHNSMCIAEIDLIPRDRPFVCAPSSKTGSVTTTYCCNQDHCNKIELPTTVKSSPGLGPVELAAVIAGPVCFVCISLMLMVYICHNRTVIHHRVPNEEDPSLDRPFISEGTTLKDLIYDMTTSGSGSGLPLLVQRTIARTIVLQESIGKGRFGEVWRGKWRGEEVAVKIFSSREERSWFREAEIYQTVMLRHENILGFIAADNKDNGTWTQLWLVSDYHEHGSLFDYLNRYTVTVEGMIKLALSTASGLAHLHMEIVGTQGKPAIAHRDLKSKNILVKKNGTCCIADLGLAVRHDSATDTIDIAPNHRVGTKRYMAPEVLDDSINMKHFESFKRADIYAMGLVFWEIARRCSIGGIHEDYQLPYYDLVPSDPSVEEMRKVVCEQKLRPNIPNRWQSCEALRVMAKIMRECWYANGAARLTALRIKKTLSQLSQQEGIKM
Chain of CDK5 CDK5R1 p25 (human) (Q00535 whole entry, looked up): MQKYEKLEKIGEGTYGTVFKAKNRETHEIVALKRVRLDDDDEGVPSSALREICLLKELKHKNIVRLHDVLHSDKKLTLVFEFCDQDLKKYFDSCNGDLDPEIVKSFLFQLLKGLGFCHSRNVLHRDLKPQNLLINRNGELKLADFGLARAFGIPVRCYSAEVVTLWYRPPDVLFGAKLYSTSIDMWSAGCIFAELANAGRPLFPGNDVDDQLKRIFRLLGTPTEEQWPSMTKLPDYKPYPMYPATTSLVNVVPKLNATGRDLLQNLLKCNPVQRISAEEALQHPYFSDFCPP
Chain of CDK5 CDK5R1 p25 (human) (Q15078 whole entry, looked up): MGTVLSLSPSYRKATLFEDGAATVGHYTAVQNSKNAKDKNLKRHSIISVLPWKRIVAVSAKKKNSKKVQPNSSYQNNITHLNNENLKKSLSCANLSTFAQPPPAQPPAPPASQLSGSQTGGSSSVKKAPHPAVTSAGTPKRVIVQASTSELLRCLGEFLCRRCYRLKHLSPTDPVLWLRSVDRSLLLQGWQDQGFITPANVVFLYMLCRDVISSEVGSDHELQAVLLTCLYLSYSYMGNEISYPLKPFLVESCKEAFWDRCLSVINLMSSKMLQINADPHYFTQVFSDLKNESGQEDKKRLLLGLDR
Chain of MET (human) (P08581 whole entry, looked up): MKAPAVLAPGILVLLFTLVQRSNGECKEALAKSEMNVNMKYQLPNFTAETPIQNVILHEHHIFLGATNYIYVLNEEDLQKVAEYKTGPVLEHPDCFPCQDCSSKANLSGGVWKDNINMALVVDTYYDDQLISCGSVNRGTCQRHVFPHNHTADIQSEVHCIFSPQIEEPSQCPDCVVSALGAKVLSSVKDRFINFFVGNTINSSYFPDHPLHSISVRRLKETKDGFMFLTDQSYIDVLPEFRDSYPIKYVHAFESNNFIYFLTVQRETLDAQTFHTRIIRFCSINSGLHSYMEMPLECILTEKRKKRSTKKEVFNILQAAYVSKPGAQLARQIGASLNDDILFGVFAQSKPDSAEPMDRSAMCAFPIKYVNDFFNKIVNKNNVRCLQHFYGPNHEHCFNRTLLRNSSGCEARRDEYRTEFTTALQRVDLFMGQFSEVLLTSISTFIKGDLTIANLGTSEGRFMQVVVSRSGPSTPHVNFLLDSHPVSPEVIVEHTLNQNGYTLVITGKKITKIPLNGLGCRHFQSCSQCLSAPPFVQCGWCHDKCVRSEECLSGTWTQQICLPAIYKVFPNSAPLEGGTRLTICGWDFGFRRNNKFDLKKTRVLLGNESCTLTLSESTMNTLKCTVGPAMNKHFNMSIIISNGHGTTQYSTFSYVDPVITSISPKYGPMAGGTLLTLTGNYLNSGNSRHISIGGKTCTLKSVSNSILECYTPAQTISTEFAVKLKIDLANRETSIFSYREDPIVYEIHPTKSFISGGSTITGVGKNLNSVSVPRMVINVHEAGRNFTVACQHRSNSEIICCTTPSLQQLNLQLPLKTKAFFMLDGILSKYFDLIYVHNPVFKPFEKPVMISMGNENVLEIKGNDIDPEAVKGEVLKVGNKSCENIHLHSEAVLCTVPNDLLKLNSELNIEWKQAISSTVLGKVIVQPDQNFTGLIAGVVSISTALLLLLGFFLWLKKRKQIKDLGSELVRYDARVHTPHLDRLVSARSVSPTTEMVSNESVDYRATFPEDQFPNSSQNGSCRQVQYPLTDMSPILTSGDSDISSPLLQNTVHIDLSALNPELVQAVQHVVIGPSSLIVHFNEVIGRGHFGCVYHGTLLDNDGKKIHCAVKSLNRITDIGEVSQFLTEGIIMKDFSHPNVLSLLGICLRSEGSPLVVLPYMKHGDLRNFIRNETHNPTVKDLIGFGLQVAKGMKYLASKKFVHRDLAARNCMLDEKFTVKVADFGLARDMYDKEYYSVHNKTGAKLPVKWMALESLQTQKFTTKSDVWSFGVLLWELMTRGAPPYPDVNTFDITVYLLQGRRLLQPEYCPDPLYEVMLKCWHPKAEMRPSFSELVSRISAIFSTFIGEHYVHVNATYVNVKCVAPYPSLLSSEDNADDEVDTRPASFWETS
Chain of SRC (human) (P12931 whole entry, looked up): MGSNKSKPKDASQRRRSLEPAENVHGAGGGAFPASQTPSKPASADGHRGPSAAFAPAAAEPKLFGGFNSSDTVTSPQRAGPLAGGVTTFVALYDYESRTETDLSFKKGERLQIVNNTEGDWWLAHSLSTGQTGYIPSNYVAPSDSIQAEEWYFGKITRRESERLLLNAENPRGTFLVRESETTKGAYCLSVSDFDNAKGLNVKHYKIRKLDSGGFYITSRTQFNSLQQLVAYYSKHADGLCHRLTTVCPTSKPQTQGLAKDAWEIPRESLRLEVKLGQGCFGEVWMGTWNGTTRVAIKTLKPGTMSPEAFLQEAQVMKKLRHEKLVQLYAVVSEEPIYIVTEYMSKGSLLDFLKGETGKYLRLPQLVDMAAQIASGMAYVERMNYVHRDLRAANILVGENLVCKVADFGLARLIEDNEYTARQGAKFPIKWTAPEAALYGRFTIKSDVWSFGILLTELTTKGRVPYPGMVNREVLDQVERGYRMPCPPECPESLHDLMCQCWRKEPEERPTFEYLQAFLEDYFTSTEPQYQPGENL
Chain of PIM2 (human) (Q9P1W9 whole entry, looked up): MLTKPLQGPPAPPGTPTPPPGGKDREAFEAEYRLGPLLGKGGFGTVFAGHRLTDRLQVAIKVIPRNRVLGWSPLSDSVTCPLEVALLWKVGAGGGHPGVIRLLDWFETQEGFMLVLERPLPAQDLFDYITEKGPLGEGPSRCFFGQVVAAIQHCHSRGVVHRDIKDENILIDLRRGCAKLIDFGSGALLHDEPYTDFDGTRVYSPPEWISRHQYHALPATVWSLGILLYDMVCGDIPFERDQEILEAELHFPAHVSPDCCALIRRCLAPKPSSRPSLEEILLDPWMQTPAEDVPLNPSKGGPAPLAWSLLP

`O=C1Nc2ccc(Br)cc2/C1=C\c1cc2c([nH]1)CCCC2` was tested, and the residual activity (FLT1 (human)) was 73.4%, the residual activity (PDGFRB (human)) was 58.8% and the residual activity (CSNK1D (human)) was 72.4%. For the same molecule, the residual activity (DYRK1A (human)) was 87.1%, the residual activity (RPS6KA2 KD1 KD2 (human)) was 72% and the residual activity (MAP3K2 (human)) was 93.6%. The residual activity (PRKCD (human)) was 95.6%, the residual activity (TGFBR1 (human)) was 100% and the residual activity (CDK5 CDK5R1 p25 (human)) was 91.3%. It also gave a residual activity (CAMKK1 (human)) of 69.6%, a residual activity [1] of 99.3% and a residual activity (MYLK2 (human)) of 78.2%. The residual activity (CSNK1A1 (human)) was 100%, the residual activity (FES (human)) was 83.8% and the residual activity (AURKB (human)) was 56.7%. It also gave a residual activity (STK4 (human)) of 44.1%, a residual activity (PIM2 (human)) of 100% and a residual activity (BLK (human)) of 74.4%. It also gave a residual activity (CDC42BPB (human)) of 114%, a residual activity (MAP3K11 (human)) of 16.8% and a residual activity (AKT3 (human)) of 96.6%. For the same molecule, the residual activity (CSNK1E (human)) was 84.3%, the residual activity (OXSR1 (human)) was 96.7% and the residual activity (AURKA (human)) was 87.5%. For the same molecule, the residual activity (INSRR (human)) was 94.8%, the residual activity (EPHB2 (human)) was 85.4% and the residual activity (DAPK1 (human)) was 111%. The residual activity (HIPK2 (human)) was 91%, the residual activity (DMPK (human)) was 101% and the residual activity (MAPK11 (human)) was 96.8%. For the same molecule, the residual activity (JAK2 JH1 JH2 (human)) was 95.2%, the residual activity (GSK3A (human)) was 88.5% and the residual activity (FGR (human)) was 67.7%. For the same molecule, the residual activity (PRKG2 (human)) was 92.4%, the residual activity (SRC (human)) was 88.8% and the residual activity (YES1 (human)) was 67.2%. The residual activity (SGK3 (human)) was 97.6%, the residual activity (RAF1 (human)) was 88.2% and the residual activity (PTK2 (human)) was 81.9%. The residual activity (MAP2K2 (human)) was 92.1%, the residual activity (MET (human)) was 81.6% and the residual activity (MLTK (human)) was 87.7%.

In the case of `CC(C)(C)c1cc(C=C(C#N)C#N)cc(Br)c1O`, the residual activity (FLT1 (human)) is reported as 92.5%, the residual activity (PDGFRB (human)) is reported as 104% and the residual activity (CSNK1D (human)) is reported as 85.5%. It also gave a residual activity (DYRK1A (human)) of 95.4%, a residual activity (RPS6KA2 KD1 KD2 (human)) of 98.9% and a residual activity (MAP3K2 (human)) of 93.7%. It also gave a residual activity (PRKCD (human)) of 83%, a residual activity (TGFBR1 (human)) of 103% and a residual activity (CDK5 CDK5R1 p25 (human)) of 98.2%. For the same molecule, the residual activity (CAMKK1 (human)) was 120%, the residual activity [1] was 107% and the residual activity (MYLK2 (human)) was 99.3%. The residual activity (CSNK1A1 (human)) was 84.5%, the residual activity (FES (human)) was 105% and the residual activity (AURKB (human)) was 97.1%. For the same molecule, the residual activity (STK4 (human)) was 90.5%, the residual activity (PIM2 (human)) was 115% and the residual activity (BLK (human)) was 97.9%. For the same molecule, the residual activity (CDC42BPB (human)) was 103%, the residual activity (MAP3K11 (human)) was 97.4% and the residual activity (AKT3 (human)) was 111%. The residual activity (CSNK1E (human)) was 92.1%, the residual activity (OXSR1 (human)) was 98% and the residual activity (AURKA (human)) was 89.8%. It also gave a residual activity (INSRR (human)) of 103%, a residual activity (EPHB2 (human)) of 100% and a residual activity (DAPK1 (human)) of 85.9%. It also gave a residual activity (HIPK2 (human)) of 110%, a residual activity (DMPK (human)) of 96.9% and a residual activity (MAPK11 (human)) of 100%. The residual activity (JAK2 JH1 JH2 (human)) was 107%, the residual activity (GSK3A (human)) was 104% and the residual activity (FGR (human)) was 75.4%. For the same molecule, the residual activity (PRKG2 (human)) was 87.6%, the residual activity (SRC (human)) was 87.4% and the residual activity (YES1 (human)) was 83%. It also gave a residual activity (SGK3 (human)) of 97.7%, a residual activity (RAF1 (human)) of 104% and a residual activity (PTK2 (human)) of 107%. It also gave a residual activity (MAP2K2 (human)) of 85.8%, a residual activity (MET (human)) of 111% and a residual activity (MLTK (human)) of 91.2%.

Work on `COc1cc2ncnc(Nc3ccc(OCc4ccccc4)cc3)c2cc1OC` yielded a residual activity (FLT1 (human)) of 96%, a residual activity (PDGFRB (human)) of 93% and a residual activity (CSNK1D (human)) of 96.6%. For the same molecule, the residual activity (DYRK1A (human)) was 105%, the residual activity (RPS6KA2 KD1 KD2 (human)) was 100% and the residual activity (MAP3K2 (human)) was 113%. For the same molecule, the residual activity (PRKCD (human)) was 101%, the residual activity (TGFBR1 (human)) was 95.7% and the residual activity (CDK5 CDK5R1 p25 (human)) was 97.8%. The residual activity (CAMKK1 (human)) was 126%, the residual activity [1] was 101% and the residual activity (MYLK2 (human)) was 97.5%. The residual activity (CSNK1A1 (human)) was 105%, the residual activity (FES (human)) was 97% and the residual activity (AURKB (human)) was 50.3%. It also gave a residual activity (STK4 (human)) of 101%, a residual activity (PIM2 (human)) of 97.6% and a residual activity (BLK (human)) of 88.2%. The residual activity (CDC42BPB (human)) was 98.8%, the residual activity (MAP3K11 (human)) was 92.2% and the residual activity (AKT3 (human)) was 103%. It also gave a residual activity (CSNK1E (human)) of 98.4%, a residual activity (OXSR1 (human)) of 110% and a residual activity (AURKA (human)) of 91.3%. For the same molecule, the residual activity (INSRR (human)) was 99.9%, the residual activity (EPHB2 (human)) was 93.9% and the residual activity (DAPK1 (human)) was 98.5%. For the same molecule, the residual activity (HIPK2 (human)) was 111%, the residual activity (DMPK (human)) was 104% and the residual activity (MAPK11 (human)) was 96.9%. For the same molecule, the residual activity (JAK2 JH1 JH2 (human)) was 94.3%, the residual activity (GSK3A (human)) was 104% and the residual activity (FGR (human)) was 72.2%. For the same molecule, the residual activity (PRKG2 (human)) was 104%, the residual activity (SRC (human)) was 102% and the residual activity (YES1 (human)) was 36%. The residual activity (SGK3 (human)) was 105%, the residual activity (RAF1 (human)) was 61% and the residual activity (PTK2 (human)) was 105%. The residual activity (MAP2K2 (human)) was 98.5%, the residual activity (MET (human)) was 98.9% and the residual activity (MLTK (human)) was 96.2%.
